In article PMC6270872, “Xanthenedione Derivatives, New Promising Antioxidant and Acetylcholinesterase Inhibitor Agents” (Molecules, 2014):
≈ marks a conversion by molar mass, not a printed value. Entries after “also recorded” stand apart in the source; their conditions may differ.

What was measured:
[1] = Reducing power, potassium ferricyanide reduction method; conditions: four concentrations, 20–80 μg/mL; absorbance at 700 nm; references BHT and quercetin (Figure 3)
Procedure: The reductive potential of the compounds and standard was determined according to a previously described method. An aliquot of the sample or standard (1.0 mL) at various concentrations (20–80 μg/mL in DMSO) was mixed with phosphate buffer (0.2 mol L^−^1, pH 6.6, 1.25 mL) and 1% potassium ferricyanide (1.25 mL). The mixture was incubated at 50 °C for 20 min. After cooling, 1.25 mL of 10% trichloroacetic acid was added and the mixture incubated at 50 °C for 10 min. 1.25 mL of this solution was mixed with distilled water (1.25 mL) and 0.1% iron(III) chloride (0.25 mL) and the absorbance measured at 700 nm using an appropriate blank. Assays were carried out in triplicate.

[2] = molecular target: T1, AChE from Electrophorus electricus (Electrophorus electricus, UniProt O42275); assay: biochemical; type: biochemical; conditions: for IC50: ± SD, n = 4, read-out: Anti-AChE IC50
T1 construct: purchased Sigma-Aldrich Chemical Company, St. Louis, MO, USA
Procedure: The AChE activity was evaluated using the method described by Ellman et al. and Ingkaninan et al., modified. Briefly, 10 μL of 0.25 U/mL AChE from Electrophorus electricus (Sigma-Aldrich® Chemical Company, St. Louis, MO, USA) was added to the wells containing sample in different concentrations, and allowed to incubate for 5 min. Reaction was started by the addition 5 μL of 3 mM 5,5'-dithiobis[2-nitrobenzoic acid] (DTNB,) and 5 μL of 75 mM acetylthiocholine iodide (ATCI; Fluka Chemicals, Buchs, Switzerland). The absorbance was then read at 415 nm every 2.5 min for 7.5 min in a Bio Rad Model 680 Microplate Reader (Bio-Rad Laboratories, Inc., Hercules, CA, USA). Percentage of enzymatic inhibition was calculated relatively to the control without inhibitor. Every experiment was done in quadruplicate. […] PROGRAM Version 1.4 was used.

[3] = DPPH radical scavenging assay; conditions: for EC50: concentration of the compound to reduce the DPPH radical concentration to 50%, ± SD; for Radical Scavenging Activity AE (antiradical efficiency): AE = 1/(EC50 × TEC50), TEC50 = time to reach the steady state for the EC50
Procedure: Antioxidant activity was assayed by the DPPH (1,1-diphenyl-2-picrylhydrazyl) radical scavenging assay using the Blois method modified. […] In each assay, a control was prepared, in which the compound or standard (quercetin and BHT) was substituted by the same amount of solvent. The mixture was shaken vigorously and left to stand for 30 min in the dark, and the absorbance was then measured at 517 nm. The capability to scavenge the DPPH radical was calculated using the following equation: DPPH scavenging activity (%) = [(Ac − As)/Ac] × 100(1) where, Ac is the absorbance of the control and As is the absorbance of the compound or standard. All assays were carried out in triplicate and results expressed as EC50, i.e., as the concentration yielding 50% scavenging of DPPH, calculated by interpolation from the % vs. concentration curve.

[4] = Maximum soluble concentration in the DPPH assay; type: physicochemical; conditions: ethanol (ethanolic solution of the DPPH assay), ethanolic solutions, read-out: maximum concentration at which the compound is soluble
Procedure: Antioxidant activity was assayed by the DPPH (1,1-diphenyl-2-picrylhydrazyl) radical scavenging assay using the Blois method modified [24]. Briefly, different volumes of the ethanolic solutions of each compound or standard (1–100 µM) were added fixed volume of DPPH ethanolic solution (400 µL of the solution 0.6 mM) and solvent (ethanol) to obtain, in each case, a fixed total volume. In each assay, a control was prepared, in which the compound or standard (quercetin and BHT) was substituted by the same amount of solvent. The mixture was shaken vigorously and left to stand for 30 min in the dark, and the absorbance was then measured at 517 nm. The capability to scavenge the DPPH radical was calculated using the following equation: DPPH scavenging activity (%) = [(Ac − As)/Ac] × 100(1) where, Ac is the absorbance of the control and As is the absorbance of the compound or standard. All assays were carried out in triplicate and results expressed as EC50, i.e., as the concentration yielding 50% scavenging of DPPH, calculated by interpolation from the % vs. concentration curve.

T1 sequence (O42275 24-633): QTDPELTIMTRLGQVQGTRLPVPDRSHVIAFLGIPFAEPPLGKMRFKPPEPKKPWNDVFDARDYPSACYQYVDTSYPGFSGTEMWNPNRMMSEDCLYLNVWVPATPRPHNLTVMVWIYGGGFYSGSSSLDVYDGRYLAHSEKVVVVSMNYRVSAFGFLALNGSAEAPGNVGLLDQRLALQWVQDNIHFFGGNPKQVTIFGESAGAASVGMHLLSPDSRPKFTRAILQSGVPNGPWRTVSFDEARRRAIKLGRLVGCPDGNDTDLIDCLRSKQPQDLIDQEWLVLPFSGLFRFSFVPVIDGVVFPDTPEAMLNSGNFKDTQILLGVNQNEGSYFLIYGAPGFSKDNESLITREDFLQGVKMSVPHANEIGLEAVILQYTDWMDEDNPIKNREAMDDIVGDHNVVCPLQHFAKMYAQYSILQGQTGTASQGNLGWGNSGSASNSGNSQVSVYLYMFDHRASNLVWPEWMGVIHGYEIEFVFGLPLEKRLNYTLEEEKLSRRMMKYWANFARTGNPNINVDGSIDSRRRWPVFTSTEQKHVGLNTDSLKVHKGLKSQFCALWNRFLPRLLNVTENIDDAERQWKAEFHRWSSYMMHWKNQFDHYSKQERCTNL

SMILES | Reducing power (reduction of ferric ion) [1] | IC50 [2] [µM] | DPPH quenched ([3]; at 552 µM, the maximum soluble concentration) [%] | EC50 [3] [µM] | Type of AChE inhibition [2] | solubility [4] [µM] | Radical Scavenging Activity AE (antiradical efficiency) [3]
O=C1CC(c2ccccc2)C(=Cc2ccccc2)c2oc3cccc(O)c3c(=O)c21 (centres unmarked) [Compound 5a, (E)-3-Aryl-4-benzylidene-8-hydroxy-3,4-dihydro-1H-xanthene-1,9(2H)-dione] | did not significantly reduce ferric ion | > 381 | – | – | – | – | –
Cc1ccc(/C=C2/c3oc4cccc(O)c4c(=O)c3C(=O)CC2c2ccc(C)cc2)cc1 (centres unmarked) [Compound 5b, (E)-8-Hydroxy-4-(4-methylbenzylidene)-3-(4-methylphenyl)-3,4-dihydro-1H-xanthene-1,9(2H)-dione] | – | > 355 | – | – | – | – | –
O=C1CC(c2ccc(O)cc2)C(=Cc2ccc(O)cc2)c2oc3cccc(O)c3c(=O)c21 (centres unmarked) [Compound 5c] | did not significantly reduce ferric ion | 41.1 ± 6.1 | 36 | > 552 | mixed type inhibition | 552 (≈ 235 µg/mL) | –
O=C1CC(c2ccc(Cl)cc2)C(=Cc2ccc(Cl)cc2)c2oc3cccc(O)c3c(=O)c21 (centres unmarked) [Compound 5d] | – | > 325 | – | – | – | – | –
O=C1CC(c2ccc(O)c(O)c2)C(=Cc2ccc(O)c(O)c2)c2oc3cccc(O)c3c(=O)c21 (centres unmarked) [Compound 5e, (E)-8-Hydroxy-4-(3,4-dihydroxybenzylidene)-3-(3,4-dihydroxyphenyl)-3,4-dihydro-1H-xanthene-1,9-(2H)-dione] | higher reduction capacity than BHT and similar to quercetin; also recorded: more efficient than BHT and similar to quercetin | 31 ± 0.09 | – | 3.79 ± 0.06 | almost pure competitive type inhibition | – | 0.026
O=C1CC(c2ccccc2Cl)/C(=C\c2ccccc2Cl)c2oc3cccc(O)c3c(=O)c21 (centres unmarked) [Compound 5f, (E)-4-(2-Chlorobenzylidene)-3-(2-chlorophenyl)-8-hydroxy-3,4-dihydro-1H-xanthene-1,9(2H)-dione] | – | > 325 | – | – | – | – | –
O=c1c(O)c(-c2ccc(O)c(O)c2)oc2cc(O)cc(O)c12 [Quercetin, reference compound] | – | – | – | 5.97 ± 0.11 | – | – | 0.0042
Cc1c(C)c2c(c(C)c1O)CCC(C)(C(=O)O)O2 (centres unmarked) [Trolox, reference compound] | – | – | – | 18.7 ± 0.65 | – | – | 0.011
